Data from DBAASP.
≈ marks a conversion by molar mass, not a printed value. Where “and” joins values, the source holds several entries; their conditions need not be identical. Equal values may be shown once.

Legend:
Experiment in all cases: ≥ marks a high value that may be exact or a test limit, other limits are often not marked, values filed in µg/mL are converted to µM
[1] = test system: Bacillus subtilis ATCC 6633
[2] = test system: Staphylococcus aureus ATCC 2592
[3] = test system: Candida albicans ATCC 90028
[4] = test system: Escherichia coli ATCC 25922
[5] = test system: Staphylococcus aureus NCTC 8325
Acinetobacter baumannii = test system: Acinetobacter baumannii
[6] = test system: Escherichia coli ATCC 25726
[7] = test system: Staphylococcus aureus ATCC 25923
Bacillus subtilis = test system: Bacillus subtilis
[8] = test system: Candida albicans ATCC 2002

Row | MIC [3] [µM] | MIC [4] | MIC [5] [µM] | MIC [6] [µM] | MIC [7] [µM] | Compound | further results
1 |  |  |  |  |  | CC[C@H](C)[C@H](NC(=O)[C@@H](NC(=O)[C@@H](N)Cc1ccccc1)[C@@H](C)CC)C(=O)N[C@H](C(=O)NCC(=O)N[C@@H](CC(C)C)C(=O)N[C@H](C(=O)N[C@@H](CCCN=C(N)N)C(=O)NCC(=O)N[C@@H](CC(C)C)C(=O)N[C@H](C(=O)N[C@@H](CCCCN)C(=O)N[C@@H](CC(C)C)C(=O)N[C@@H](Cc1ccccc1)C(N)=O)[C@@H](C)O)C(C)C)[C@@H](C)O [FIITGLVRGLTKLF] | MIC [1]: 15.8 µM (≈ 25 µg/mL); MIC [2]: 7.92 µM (≈ 12.5 µg/mL)
2 | 10 (≈ 25.7 µg/mL) | 3 µM (≈ 7.7 µg/mL) | 1 (≈ 2.57 µg/mL) |  |  | CC[C@H](C)[C@H](NC(=O)[C@H](C)NC(=O)[C@@H]1CCCN1C(=O)[C@H](CC(C)C)NC(=O)[C@@H](N)Cc1ccccc1)C(=O)N[C@@H](C)C(=O)NCC(=O)N[C@@H](CCSC)C(=O)N[C@@H](C)C(=O)N[C@@H](C)C(=O)N[C@@H](CCCCN)C(=O)N[C@@H](Cc1ccccc1)C(=O)N[C@@H](CC(C)C)C(=O)N1CCC[C@H]1C(=O)N[C@@H](CCCCN)C(=O)N[C@H](C(=O)N[C@@H](Cc1ccccc1)C(=O)N[C@H]1CSSC[C@@H](C(=O)O)NC(=O)[C@H](CCCCN)NC(=O)[C@H](CCCCN)NC(=O)[C@H](CO)NC(=O)[C@H]([C@@H](C)CC)NC(=O)[C@H](C)NC1=O)[C@@H](C)CC [FLPAIAGMAAKFLPKIFCAISKKC] | 
3 |  | 150 µM and 100 µM |  |  |  | CC[C@H](C)[C@H](NC(=O)CN)C(=O)NCC(=O)N[C@@H](CCCN=C(N)N)C(=O)N[C@@H](CCCCN)C(=O)N[C@@H](Cc1ccccc1)C(=O)N[C@@H](CC(C)C)C(=O)NCC(=O)NCC(=O)N[C@H](C(=O)N[C@@H](CCCCN)C(=O)N[C@H](C(=O)N[C@H](C(=O)N[C@@H](Cc1ccccc1)C(=O)N[C@@H](CCCN=C(N)N)C(=O)NCC(=O)NCC(=O)N[C@H](C(=O)N[C@@H](CCCCN)C(=O)N[C@@H](CC(=O)O)C(=O)N[C@@H](Cc1ccccc1)C(=O)N[C@@H](C)C(=O)N[C@@H](CO)C(=O)N[C@@H](CCCCN)C(=O)N[C@@H](Cc1cnc[nH]1)C(=O)N[C@@H](CC(C)C)C(=O)N[C@@H](Cc1ccc(O)cc1)C(N)=O)C(C)C)[C@@H](C)O)[C@@H](C)O)C(C)C [GIGRKFLGGVKTTFRGGVKDFASKHLY] | MIC [2]: ≥ 75 µM
4 | ≥ 150 | 17 µM (≈ 49.6 µg/mL) | ≥ 70 |  |  | CC[C@H](C)[C@H](NC(=O)CN)C(=O)N[C@@H](CC(C)C)C(=O)N[C@@H](CC(=O)O)C(=O)N[C@H](C(=O)N[C@H](C(=O)N[C@@H](CCCCN)C(=O)N[C@@H](CC(N)=O)C(=O)N[C@@H](C)C(=O)N[C@@H](C)C(=O)N[C@@H](CCCCN)C(=O)N[C@H](C(=O)N[C@H](C(=O)N[C@@H](C)C(=O)N[C@H](C(=O)NCC(=O)N[C@@H](CC(C)C)C(=O)N[C@@H](CC(C)C)C(=O)N[C@@H](CCC(=O)O)C(=O)N[C@@H](CCCCN)C(=O)N[C@H](C(=O)N[C@@H](CCCCN)C(=O)N[C@H]1CSSC[C@@H](C(=O)O)NC(=O)CNC(=O)[C@H]([C@@H](C)O)NC(=O)[C@H](CCSC)NC(=O)[C@H](CCCCN)NC1=O)[C@@H](C)CC)C(C)C)C(C)C)[C@@H](C)O)[C@@H](C)CC)[C@@H](C)O [GILDTIKNAAKTVAVGLLEKIKCKMTGC] | 
5 | 12.5 (≈ 28.4 µg/mL) |  |  | 12.5 (≈ 28.4 µg/mL) | 6.25 (≈ 14.2 µg/mL) | CC[C@H](C)[C@H](NC(=O)CN)C(=O)N[C@@H](Cc1c[nH]c2ccccc12)C(=O)N[C@@H](CCCCN)C(=O)N[C@H](C(=O)N[C@H](C(=O)N[C@@H](CCCCN)C(=O)N[C@@H](CO)C(=O)N[C@@H](CCSC)C(=O)NCC(=O)N[C@@H](CCCCN)C(=O)N[C@H](C(=O)N[C@@H](Cc1ccccc1)C(=O)N[C@@H](C)C(=O)NCC(=O)N[C@@H](C)C(=O)N[C@H](C(=O)N[C@@H](CC(C)C)C(=O)N[C@@H](CCC(N)=O)C(=O)N[C@@H](CC(N)=O)C(=O)N[C@@H](CC(C)C)C(N)=O)[C@@H](C)CC)C(C)C)[C@@H](C)CC)[C@@H](C)O [GIWKTIKSMGKVFAGAILQNL] | MIC (Acinetobacter baumannii): 12.5 µM (≈ 28.4 µg/mL)
6 | 25 (≈ 72.3 µg/mL) |  |  | 12.5 (≈ 36.2 µg/mL) | 6 (≈ 17.4 µg/mL) | CSCC[C@H](NC(=O)[C@H](CCSC)NC(=O)[C@H](CCCCN)NC(=O)CNC(=O)[C@@H](NC(=O)[C@@H](NC(=O)[C@H](CCCCN)NC(=O)[C@H](CC(C)C)NC(=O)CNC(=O)[C@H](Cc1ccccc1)NC(=O)[C@H](CCCCN)NC(=O)[C@H](Cc1ccccc1)NC(=O)[C@H](C)NC(=O)[C@H](CCCCN)NC(=O)CNC(=O)[C@H](CC(C)C)NC(=O)[C@H](CC(C)C)NC(=O)[C@H](CO)NC(=O)CNC(=O)[C@H](CC(C)C)NC(=O)CN)[C@@H](C)O)C(C)C)C(=O)N[C@@H](C)C(=O)NCC(=O)N[C@@H](C)C(=O)N1CCC[C@H]1C(=O)N[C@@H](CCCN=C(N)N)C(=O)N[C@@H](CCC(=O)O)C(=O)N[C@@H](CCC(N)=O)C(=O)O [GLGSLLGKAFKFGLKTVGKMMAGAPREQ] | 
7 |  |  |  | ≥ 37.5 | 18.8 (≈ 62.5 µg/mL) | CC[C@H](C)[C@H](NC(=O)[C@H](C)NC(=O)[C@H](CC(C)C)NC(=O)[C@H](CC(N)=O)NC(=O)[C@H](CCCCN)NC(=O)[C@H](CC(C)C)NC(=O)[C@H](CO)NC(=O)[C@H](CC(=O)O)NC(=O)[C@H](CC(C)C)NC(=O)[C@H](CC(C)C)NC(=O)CN)C(=O)N[C@@H](CC(N)=O)C(=O)N[C@@H](C)C(=O)N[C@@H](C)C(=O)N[C@@H](CCCCN)C(=O)NCC(=O)N[C@@H](C)C(=O)NCC(=O)N[C@@H](CCC(N)=O)C(=O)N[C@@H](CO)C(=O)N[C@H](C(=O)N[C@@H](CC(C)C)C(=O)N[C@@H](CC(N)=O)C(=O)N[C@H](C(=O)N[C@@H](CC(C)C)C(=O)N[C@@H](CO)C(=O)N[C@H]1CSSC[C@@H](C(=O)O)NC(=O)[C@H]([C@@H](C)O)NC(=O)[C@H](CCCCN)NC(=O)[C@H](CO)NC(=O)[C@H](CC(C)C)NC(=O)[C@H](CCCCN)NC1=O)[C@@H](C)O)C(C)C [GLLDSLKNLAINAAKGAGQSVLNTLSCKLSKTC] | 
8 |  | 20 µM (≈ 53.7 µg/mL) | ≥ 80 |  |  | CC[C@H](C)[C@H](NC(=O)CNC(=O)[C@H](CCCCN)NC(=O)[C@H](Cc1ccccc1)NC(=O)[C@@H](NC(=O)[C@H](CCCCN)NC(=O)[C@H](CCCCN)NC(=O)[C@H](CC(C)C)NC(=O)[C@H](C)NC(=O)[C@H](CC(N)=O)NC(=O)[C@H](CC(C)C)NC(=O)CN)C(C)C)C(=O)N[C@@H](Cc1cnc[nH]1)C(=O)N[C@@H](CCC(=O)O)C(=O)N[C@@H](C)C(=O)N[C@H](C(=O)N[C@@H](CCCCN)C(=O)N[C@@H](CC(C)C)C(=O)N[C@H](C(=O)N[C@@H](CC(N)=O)C(=O)N[C@@H](CC(N)=O)C(=O)N[C@@H](Cc1cnc[nH]1)C(=O)N[C@H](C(=O)N[C@@H](CCC(N)=O)C(=O)O)C(C)C)[C@@H](C)CC)[C@@H](C)CC [GLNALKKVFKGIHEAIKLINNHVQ] | 
9 |  | 20 µM (≈ 53.7 µg/mL) | ≥ 40 |  |  | CC[C@H](C)[C@H](NC(=O)CNC(=O)[C@H](CCC(N)=O)NC(=O)[C@H](Cc1ccccc1)NC(=O)[C@@H](NC(=O)[C@H](CCCCN)NC(=O)[C@H](CCCCN)NC(=O)[C@H](CC(C)C)NC(=O)[C@H](C)NC(=O)[C@H](CC(N)=O)NC(=O)[C@H](CC(C)C)NC(=O)CN)C(C)C)C(=O)N[C@@H](Cc1cnc[nH]1)C(=O)N[C@@H](CCCCN)C(=O)N[C@@H](C)C(=O)N[C@H](C(=O)N[C@@H](CCCCN)C(=O)N[C@@H](CC(C)C)C(=O)N[C@H](C(=O)N[C@@H](CC(N)=O)C(=O)N[C@@H](CC(N)=O)C(=O)N[C@@H](Cc1cnc[nH]1)C(=O)N[C@H](C(=O)N[C@@H](CCC(N)=O)C(=O)O)C(C)C)[C@@H](C)CC)[C@@H](C)CC [GLNALKKVFQGIHKAIKLINNHVQ] | 
10 | ≥ 100 | > 100 µM | ≥ 100 |  |  | CC[C@H](C)[C@H](N)C(=O)N[C@@H](CC(C)C)C(=O)N1CCC[C@H]1C(=O)N[C@H](C(=O)N[C@@H](CC(C)C)C(=O)NCC(=O)N[C@@H](CC(N)=O)C(=O)N[C@@H](CC(C)C)C(=O)N[C@@H](CC(C)C)C(=O)N[C@@H](CC(N)=O)C(=O)N[C@@H](CO)C(=O)N[C@@H](CC(C)C)C(=O)N[C@@H](CC(C)C)C(N)=O)[C@@H](C)CC [ILPILGNLLNSLL] | 
11 |  |  |  | ≥ 40 | 40 (≈ 106 µg/mL) | CC[C@H](C)[C@H](N)C(=O)N[C@H](C(=O)N[C@H](C(=O)N1CCC[C@H]1C(=O)N1CCC[C@H]1C(=O)N[C@H](C(=O)N[C@H](C(=O)N[C@@H](CCCCN)C(=O)N[C@@H](CC(=O)O)C(=O)N[C@H](C(=O)N[C@@H](CC(C)C)C(=O)N[C@@H](CCCCN)C(=O)N[C@@H](CCCCN)C(=O)N[C@@H](Cc1ccccc1)C(=O)N[C@@H](Cc1ccccc1)C(=O)N[C@@H](CCCCN)C(=O)NCC(=O)NCC(=O)N[C@H](C(=O)N[C@@H](C)C(=O)NCC(=O)N[C@H](C(=O)N[C@@H](CCSC)C(=O)NCC(=O)N[C@@H](CCC(N)=O)C(=O)O)C(C)C)[C@@H](C)CC)[C@@H](C)O)C(C)C)[C@@H](C)CC)[C@@H](C)CC)[C@@H](C)O [ITIPPIVKDTLKKFFKGGIAGVMGQ] | 
12 |  | 44.4 µM (≈ 120 µg/mL) |  |  |  | CC[C@H](C)[C@H](NC(=O)[C@H](CCC(N)=O)NC(=O)[C@H](CCCCN)NC(=O)CNC(=O)[C@H](CC(C)C)NC(=O)[C@H](CCC(N)=O)NC(=O)CNC(=O)[C@H](CC(C)C)NC(=O)[C@H](CCCCN)NC(=O)[C@H](C)NC(=O)[C@H](CCC(=O)O)NC(=O)[C@H](CCCCN)NC(=O)[C@@H](NC(=O)CNC(=O)[C@@H](NC(=O)[C@@H](NC(=O)[C@@H](NC(=O)[C@@H](N)CO)[C@@H](C)CC)[C@@H](C)CC)[C@@H](C)O)[C@@H](C)O)C(=O)N[C@@H](C)C(=O)N[C@H]1CSSC[C@@H](C(=O)O)NC(=O)[C@H]([C@@H](C)O)NC(=O)[C@H](CC(N)=O)NC(=O)CNC(=O)[C@H](CC(C)C)NC(=O)[C@H](CCCN=C(N)N)NC1=O [SIITGTKEAKLGQLGKQIACRLGNTC] | MIC (Bacillus subtilis): ≥ 44.4 µM; MIC [8]: 11.1 µM (≈ 30 µg/mL); MIC [2]: 5.55 µM (≈ 15 µg/mL)
